Results as given in patent US9801925B2, “Potentiation of glucose elimination” (MannKind Corporation, priority 1999, dated 2017).

Assay: Excretion of FDKP after pulmonary administration of Technosphere particles
Type: in vivo
Text: Technosphere® refers to a diketopiperazine-based drug delivery system which can complex and stabilize peptides in small particles. Diketopiperazines, particularly fumaryl diketopiperazine (FDKP), self-assemble into microparticles with a mean diameter of about 2 microns. In the process it can entrap or complex with peptides, such as insulin, present in the solution during or after self-assembly. Once dried, these microparticles become a suitable composition for pulmonary delivery to the systemic circulation. When administered by the pulmonary route, Technosphere® particles dissolve in the pH neutral environment of the deep lung and facilitate the rapid and efficient absorption of the peptide into systemic circulation.

In the case of O=C(O)/C=C/C(=O)NCCCCC1NC(=O)C(CCCCNC(=O)/C=C/C(=O)O)NC1=O (stereo not shown) [FDKP, 3,6-di(fumaryl-4-aminobutyl)-2,5-diketopiperazine], the excretion is reported as “excreted un-metabolized in the urine within hours of administration”.
